Results on 27 compounds are retold here after patent US11053219B2, “Substituted pyridines as TYK2 inhibitors” (FronThera U.S. Pharmaceuticals LLC, priority 2018, dated 2021).

Where two headings read alike, the source gives them in different places.

Assay [1] deals with JAK1 (JH2 domain) (Homo sapiens (Human), UniProt P23458). As to the kind of experiment: JAK1 JH2 domain binding assay (KINOMEscan).
Description: (§1) The assay is performed by combining three components: DNA-tagged kinase; immobilized ligand; and a test compound. The ability of the test compound to compete with the immobilized ligand is measured via quantitative PCR of the DNA tag.
(§2) The liganded beads were blocked with excess biotin and washed with blocking buffer (SeaBlock (Pierce), 1% BSA, 0.05% Tween 20, 1 mM DTT) to remove unbound ligand and to reduce non-specific binding. […] Test compounds were prepared as 111× stocks in 100% DMSO. All test compounds were shipped to DiscoverX in DMSO with concentration of 10 mM. Kds were determined using an 11-point 3-fold compound dilution series with three DMSO control points. Each compound was tested in duplicate. […] The compounds were then diluted directly into the assays such that the final concentration of DMSO was 0.9%. All reactions performed in polypropylene 384-well plate. Each was a final volume of 0.02 ml. […] The kinase concentration in the eluates was measured by qPCR.
(§3) The amount of kinase measured by qPCR (Signal; y-axis) is plotted against the corresponding compound concentration in nM in log 10 scale (x-axis). Binding constants (Kds) were calculated with a standard dose-response curve using the Hill equation:
Similar to the method for TYK2 JH2 binding described above, JAK1 JH2 and JAK2 JH1 domain binding assay was performed using DiscoverX's KINOMEscan™, but with change of kinase domain.
Assay [2] concerns the target TYK2 (JH2 domain) (Homo sapiens (Human), UniProt P29597). The experiment in a line: TYK2 JH2 domain binding assay (DiscoverX KINOMEscan). To be noted: 11-point 3-fold dilution, duplicate.
Description: as §1, §2, §3
The Hill Slope was set to −1.
Curves were fitted using anon-linear least square fit with the Levenberg-Marquardt algorithm.
The target in assay [3] is JAK2 (JH1 domain) (Homo sapiens (Human), UniProt O60674). As to the kind of experiment: JAK2 JH1 domain binding assay (KINOMEscan).
Sequence of JAK2 (JH1 domain) (O60674 849-1124): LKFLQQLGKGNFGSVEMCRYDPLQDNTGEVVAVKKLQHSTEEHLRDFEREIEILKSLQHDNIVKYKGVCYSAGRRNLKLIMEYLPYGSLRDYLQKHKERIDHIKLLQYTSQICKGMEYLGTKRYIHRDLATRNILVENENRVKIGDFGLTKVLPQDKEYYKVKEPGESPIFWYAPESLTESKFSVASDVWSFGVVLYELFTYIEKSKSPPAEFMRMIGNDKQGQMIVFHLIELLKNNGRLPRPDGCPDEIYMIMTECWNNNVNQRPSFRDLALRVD
In assay [4] the test system is INFα induced pSTAT5 in human PBMC. As to the kind of experiment: INFα induced pSTAT5 in human PBMC. The assay is classed as cell-based. To be noted: human PBMC, INFα 5000 units/ml; read-out: p-STAT5 IC50.
In assay [5] the test system is IL12-induced p-STAT4 in human PBMC. As to the kind of experiment: IL-12 induced pSTAT4 in human PBMC. The assay is classed as cell-based. To be noted: human PBMC, IL-12 10 ng/ml; read-out: p-STAT4 IC50.
Description: Cells were seeded in a round bottom 96-well plate at the concentration of 200,000 cells/well. A 10-point dilution series of test compound (top dose 10 uM, 1:5 dilution) was added to the well using the liquid dispenser (Tecan D300e) and incubated for 1 hour at 37 C. Then human IL-12 recombinant protein (R&D Systems) was added to the well at the final concentration of 10 ng/ml and incubated for 15 minutes at 37 C. Cell lysates were prepared and analyzed by Phospho STAT4 (Tyr693) Kit (Meso Scale Discovery) following manufacturer's protocol.
For calculation of the inhibition rate, the relative pSTAT4 signal of each well=pSTAT4 signal of each well−the average pSTAT4 signal of baseline. The inhibition %=(the average pSTAT4 signal of IL-12 treatment wells−the relative of pSTAT4 signal in each compound containing well)/the average pSTAT4 signal of IL-12 treatment wells*100%
Assay [6] deals with INFα induced pSTAT3 in human PBMC. As to the kind of experiment: INFα induced pSTAT3 in human PBMC. The format is cell-based. Particulars: human PBMC, INFα 5000 units/ml; read-out: p-STAT3 IC50. The protocol: Fresh Human PBMCs were resuspended in RPMI 1640 medium with 10% FBS. Cells were seeded in a round bottom 96-well plate at the concentration of 200,000 cells/well. A 10-point dilution series of test compound (top dose 10 uM, 1:5 dilution) was added to the well using the liquid dispenser (Tecan D300e) and incubated for 1 hour at 37 C. Then human INFα recombinant protein (R&D Systems) was added to the well at the final concentration of 5000 units/ml and incubated for 15 minutes at 37 C. Cell lysates were prepared and analyzed by Phospho STAT3 (Tyr705) cellular kit (Cisbio) or Phospho STAT5 (Tyr693) Kit (Meso Scale Discovery) following manufacturer's protocol.
For calculation of the inhibition rate, the relative pSTAT signal of each well=pSTAT signal of each well−the average pSTAT signal of baseline. The inhibition %=(the average pSTAT signal of INFα treatment wells−the relative of pSTAT signal in each compound containing well)/the average pSTAT signal of INFα treatment wells*100%
The curve was plotted as the inhibition % (y-axis) vs. compounds concentration (x-axis) and was fitted with log(inhibitor) vs. normalized response—Variable slope by GraphPad Prism7.0.

Where [7] appears, read: KINOMEscan, read-out: JAK1 (JH2 domain) binding Kd.

Sequence of JAK1 (JH2 domain) (P23458 583-855): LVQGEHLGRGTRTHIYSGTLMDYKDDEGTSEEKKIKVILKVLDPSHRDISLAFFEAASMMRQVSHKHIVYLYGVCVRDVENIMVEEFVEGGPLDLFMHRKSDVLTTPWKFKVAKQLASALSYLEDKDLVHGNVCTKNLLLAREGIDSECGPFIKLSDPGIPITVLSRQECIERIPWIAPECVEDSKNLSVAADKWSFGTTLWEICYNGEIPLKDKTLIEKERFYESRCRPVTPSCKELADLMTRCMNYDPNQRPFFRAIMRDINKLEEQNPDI
Sequence of TYK2 (JH2 domain) (P29597 589-875): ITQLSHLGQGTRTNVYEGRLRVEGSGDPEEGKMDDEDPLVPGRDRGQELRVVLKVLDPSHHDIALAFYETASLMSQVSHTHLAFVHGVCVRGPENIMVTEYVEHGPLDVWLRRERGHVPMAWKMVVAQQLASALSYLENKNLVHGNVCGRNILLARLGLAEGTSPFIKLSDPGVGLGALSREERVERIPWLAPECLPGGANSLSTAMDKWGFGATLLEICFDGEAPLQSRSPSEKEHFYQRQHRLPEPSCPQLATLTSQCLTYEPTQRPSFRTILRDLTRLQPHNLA

With `[2H]C([2H])([2H])NC(=O)c1nnc(NC(=O)N2CC(C)(C)C2)cc1Nc1cccc(-c2ncn(C)n2)c1OC` [Example 38], the Kd (as a rule, the constant that tells how readily two partners part at equilibrium) is under 100 nM in assay [1] (setting [7]), at most 1 nM in assay [2] and 1000 to 10000 nM in assay [3]. For the same compound, the IC50 – broadly, the concentration needed to halve the response being measured – in assay [4] is under 100 nM.
In the case of `COc1c(Nc2cc(NC(=O)C3CC3)nc3cn(C)nc23)cccc1-c1ncn(C)n1` [Example 55], the Kd in assay [2] was in the range of 1 to 5 nM. Also, the concentration for half-maximal inhibition (IC50) in assay [5] and in assay [6] was 100 to 1000 nM each time.
In the case of `[2H]C([2H])([2H])NC(=O)c1nnc(N2CCCC2=O)cc1Nc1cccc(-c2ncn(C)n2)c1OC` [Example 56], the Kd in assay [2] fell in the range of 1 to 5 nM. Also, the IC50 lay in the range of 100 to 1000 nM in assay [5] and 1000 to 10000 nM in assay [6].
For `[2H]C([2H])([2H])NC(=O)c1nnc(N2CC(F)(F)C2=O)cc1Nc1cccc(-c2ncn(C)n2)c1OC` [Example 57], in that order: 1 to 5 nM, 1000 to 10000 nM and 1000 to 10000 nM.
For `CNC(=O)c1nnc(N2CCCC2=O)cc1Nc1cccc(-c2ncn(C)n2)c1OC` [Example 59], in that order: 1 to 5 nM, 1000 to 10000 nM and 1000 to 10000 nM.
For `[2H]C([2H])([2H])NC(=O)c1nnc(N2CCOC2=O)cc1Nc1cccc(-c2ncn(C)n2)c1OC` [Example 60], in that order: 1 to 5 nM, over 10000 nM and over 10000 nM.
For the compound `[2H]C([2H])([2H])NC(=O)c1nnc(N2CCC(C#N)(C3CC3)C2=O)cc1Nc1cccc(-c2ncn(C)n2)c1OC` (stereo not shown) [Example 61], in assay [2], the Kd fell in the range of 1 to 5 nM. Further, the IC50 in assay [5] and in assay [6] was 1000 to 10000 nM throughout.
`[2H]C([2H])([2H])NC(=O)c1nnc(N2CC(C)(C)C2)cc1Nc1cccc(-c2ncn(C)n2)c1OC` [Example 62]: in assay [2], the Kd lay within 5 to 10 nM. Further, the IC50 in assay [5] and in assay [6] was 1000 to 10000 nM throughout.
Regarding `[2H]C([2H])([2H])NC(=O)c1nnc(-n2ccn(C)c2=O)cc1Nc1cccc(-c2ncn(C)n2)c1OC` [Example 63], the Kd in assay [2] was at most 1 nM. The IC50 in assay [5] and in assay [6] was 100 to 1000 nM each time.
As to `[2H]C([2H])([2H])NC(=O)c1nnc(N2CCC(C)C2=O)cc1Nc1cccc(-c2ncn(C)n2)c1OC` (stereo not shown) [Example 64], the Kd in assay [2] was at most 1 nM. The IC50 in assay [5] and in assay [6] was 100 to 1000 nM in each case.
In the case of `[2H]C([2H])([2H])NC(=O)c1nnc(N2CCN(CC(F)(F)F)C2=O)cc1Nc1cccc(-c2ncn(C)n2)c1OC` [Example 67], in assay [2], the Kd is at most 1 nM. In addition, the concentration for half-maximal inhibition (IC50) in assay [5] was under 100 nM; in assay [6], 100 to 1000 nM.
The corresponding values for `[2H]C([2H])([2H])NC(=O)c1nnc(N2CCN(CC3CC3)C2=O)cc1Nc1cccc(-c2ncn(C)n2)c1OC` [Example 68] are at most 1 nM, under 100 nM and under 100 nM.
Compound `[2H]C([2H])([2H])NC(=O)c1nnc(N2CCN(CC#N)C2=O)cc1Nc1cccc(-c2ncn(C)n2)c1OC` [Example 69] displayed a Kd in assay [2] of at most 1 nM. The IC50 in assay [5] and in assay [6] was under 100 nM throughout.
In assay [2], `[2H]C([2H])([2H])NC(=O)c1nnc(N2CCN(CC3CCOC3)C2=O)cc1Nc1cccc(-c2ncn(C)n2)c1OC` (stereo not shown) [Example 71] returned a Kd of at most 1 nM. For the same compound, the IC50 in assay [5] and in assay [6] was 100 to 1000 nM each time.
Turning to `[2H]C([2H])([2H])NC(=O)c1nnc(N2CCN(CC3(C)COC3)C2=O)cc1Nc1cccc(-c2ncn(C)n2)c1OC` [Example 72], the Kd in assay [2] is at most 1 nM. Besides, the figures for the IC50 in assay [5] and in assay [6] were under 100 nM and 100 to 1000 nM, respectively.
For `[2H]C([2H])([2H])NC(=O)c1nnc(N2CCN(CC3CCCO3)C2=O)cc1Nc1cccc(-c2ncn(C)n2)c1OC` (stereo not shown) [Example 74], in that order: at most 1 nM, under 100 nM and under 100 nM.
The compound `[2H]C([2H])([2H])NC(=O)c1nnc(N2CCN(c3ccccc3)C2=O)cc1Nc1cccc(-c2ncn(C)n2)c1OC` [Example 77] had a Kd in assay [2] of 1 to 5 nM. The figures for the IC50 in assay [5] and in assay [6] were 100 to 1000 nM and 1000 to 10000 nM, respectively.
The corresponding values for `[2H]C([2H])([2H])NC(=O)c1nnc(N2CCN(C3COC3)C2=O)cc1Nc1cccc(-c2ncn(C)n2)c1OC` [Example 79] are at most 1 nM, 100 to 1000 nM and 100 to 1000 nM.
The corresponding values for `[2H]C([2H])([2H])NC(=O)c1nnc(N2CCN(C3CCOC3)C2=O)cc1Nc1cccc(-c2ncn(C)n2)c1OC` (stereo not shown) [Example 80] are at most 1 nM, under 100 nM and under 100 nM.
For `[2H]C([2H])([2H])NC(=O)c1nnc(N2CCN(C(C)C3CC3)C2=O)cc1Nc1cccc(-c2ncn(C)n2)c1OC` (stereo not shown) [Example 82], in that order: at most 1 nM, under 100 nM and under 100 nM.
Regarding `[2H]C([2H])([2H])NC(=O)c1nnc(N2CCN(C(C)C#C)C2=O)cc1Nc1cccc(-c2ncn(C)n2)c1OC` (stereo not shown) [Example 84], the Kd in assay [2] was at most 1 nM. Further, the IC50 in assay [5] and in assay [6] was under 100 nM each time.
In the case of `[2H]C([2H])([2H])NC(=O)c1nnc(N2CCN(C3CCOCC3)C2=O)cc1Nc1cccc(-c2ncn(C)n2)c1OC` [Example 86], the Kd in assay [2] is at most 1 nM. Besides, the IC50 in assay [5] is under 100 nM; in assay [6] it was 100 to 1000 nM.
The corresponding values for `[2H]C([2H])([2H])NC(=O)c1nnc(N2CCN(C(C3CC3)C(F)(F)F)C2=O)cc1Nc1cccc(-c2ncn(C)n2)c1OC` (stereo not shown) [Example 87] are at most 1 nM, under 100 nM and 100 to 1000 nM.
On to `[2H]C([2H])([2H])NC(=O)c1nnc(N2CCN(C(C)C)C2=O)cc1Nc1nccc(-c2ncn(C)n2)c1OC` [Example 147, 6-(3-isopropyl-2-oxo-imidazolidin-1-yl)-4-[[3-methoxy-4-(1-methyl-1,2,4-triazol-3-yl)-2-pyridyl]amino]-N-(trideuteriomethyl)pyridazine-3-carboxamide], for which the dissociation constant Kd in assay [1] (setting [7]) was under 100 nM; in assay [2], at most 1 nM; in assay [3], over 10000 nM. Also, the IC50 in assay [4] is under 100 nM.
For `CC(C)(O)c1ccc(Nc2cc(Nc3ncccc3S(C)(=O)=O)c(C(=O)C3CC3)cn2)nc1F` [Example 159], the equilibrium dissociation constant (Kd) in assay [1] (setting [7]) was under 100 nM; in assay [2], at most 1 nM; in assay [3], 1000 to 10000 nM. In addition, the IC50 in assay [4] was under 100 nM.
Take `CCC(=O)c1cnc(NC(=O)C2CC2)cc1Nc1nccc(-c2ncn(C)n2)c1OC` [Example 163]: the Kd is under 100 nM in assay [1], at most 1 nM in assay [2] and 100 to 1000 nM in assay [3]. In assay [4], the IC50 was under 100 nM.
`COc1c(-c2ncn(C)n2)ccnc1Nc1cc(NC(=O)C2CC2)ncc1C(=O)C1CC1` [Example 166]: the Kd in assay [1] (setting [7]) is under 100 nM; in assay [3] it was 1000 to 10000 nM. In addition, the IC50 in assay [4] was under 100 nM.
